The compounds below were run against T1, RING1B-BMI1 (Homo sapiens, UniProt Q99496) (assay: KD classes of Table A (direct binding to Ring1B-Bmi1)). Details: class given in Table A.
T1 sequence (Q99496 1-336): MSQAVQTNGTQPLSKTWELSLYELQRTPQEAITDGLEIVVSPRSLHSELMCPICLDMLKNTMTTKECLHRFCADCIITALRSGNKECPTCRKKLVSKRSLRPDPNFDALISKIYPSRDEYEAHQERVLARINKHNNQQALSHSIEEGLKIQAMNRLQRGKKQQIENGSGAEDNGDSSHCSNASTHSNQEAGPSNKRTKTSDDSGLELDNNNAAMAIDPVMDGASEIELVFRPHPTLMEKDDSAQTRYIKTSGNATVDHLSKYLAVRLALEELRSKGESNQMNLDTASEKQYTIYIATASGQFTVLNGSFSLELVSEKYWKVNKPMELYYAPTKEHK
T1 sequence (P35226 1-326 partner): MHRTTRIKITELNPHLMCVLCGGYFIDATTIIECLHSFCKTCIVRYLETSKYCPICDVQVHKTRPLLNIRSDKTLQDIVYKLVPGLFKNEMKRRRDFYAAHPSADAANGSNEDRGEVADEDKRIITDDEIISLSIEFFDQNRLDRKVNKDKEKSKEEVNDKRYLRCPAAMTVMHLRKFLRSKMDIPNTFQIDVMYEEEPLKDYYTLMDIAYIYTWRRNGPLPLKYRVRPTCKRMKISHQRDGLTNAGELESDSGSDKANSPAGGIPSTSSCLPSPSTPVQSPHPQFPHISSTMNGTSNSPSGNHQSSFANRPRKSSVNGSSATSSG
Description: Experiments were conducted during development of embodiments herein to develop small molecule inhibitors of PRC1 by targeting the Ring1B-BMI1 E3 ligase. These compounds bind directly to Ring1B-Bmi1 with low-micromolar affinity and inhibit PRC1 in vitro and in cells. […] Experiments were conducted during development of embodiments herein to test COMPOUND 1 in leukemia stem cell models represented by TEX cells (Ref. 22; herein incorporated by reference in its entirety) and M9-ENL1 cells (Ref. 23; herein incorporated by reference in its entirety). […] In some embodiments, COMPOUND 1 and COMPOUND 1 analogs are find use as agents in targeting leukemia and other cancer stem cells.
The compounds listed in Table A have been synthesized and/or tested for activity in inhibiting activity of PRC1 complex, and are within the scope herein.
`O=C(O)c1ccc(-c2cccc3c2ccn3C2CC2)[nH]1` [compound 119] was tested, and the Kd was > 100 µM. In the case of `CC(C)c1c(-c2cc(F)cc3[nH]ccc23)[nH]c(C(=O)O)c1-c1cccc2ncoc12` [compound 205], the Kd is reported as < 20 µM. `CCc1c(-c2cccc3[nH]ccc23)[nH]c(C(=O)O)c1-c1ccc([N+](=O)[O-])cc1` [compound 114] was tested, and the Kd was > 100 µM. In the case of `CC(c1c(-c2cccc3[nH]ccc23)[nH]c(C(=O)O)c1-c1cccc2[nH]ccc12)C(F)F` (stereo not shown) [compound 30, 4-(1,1-Difluoropropan-2-yl)-3,5-di(1H-indol-4-yl)-1H-pyrrole-2-carboxylic acid], the Kd is reported as < 20 µM. For `CC(C)c1c(-c2cc(F)cc3[nH]ccc23)[nH]c(C(=O)O)c1-c1cc(OC(F)(F)F)cc2[nH]ccc12` [compound 48], the Kd was < 20 µM. `CCc1c(-c2cccc3[nH]ccc23)[nH]c(C(=O)O)c1-c1ccc(OC)cc1Br` [compound 15] was tested, and the Kd was < 20 µM. With `CC(C)c1c(-c2cccc3[nH]c(C(=O)O)cc23)[nH]c(C(=O)O)c1-c1c(Cl)ccc2[nH]ccc12` [compound 49] the Kd was < 20 µM. With `CC(C)c1c(-c2cc(F)cc3[nH]ccc23)[nH]c(C(=O)O)c1-c1cccc2[nH]ncc12` [compound 40] the Kd was < 20 µM. `CC(C)c1c(-c2cc(F)cc3[nH]ccc23)[nH]c(C(=O)O)c1-c1ccc(Oc2ccncc2)cc1` [compound 63] was tested, and the Kd was < 20 µM. In the case of `CC(C)c1c(-c2cccc3c(N)c[nH]c23)[nH]c(C(=O)O)c1-c1cccc2[nH]ccc12` [compound 223], the Kd is reported as < 20 µM. For `CCc1c(C(=O)O)[nH]c(-c2cccc3[nH]ccc23)c1-c1ccccc1` [compound 113], the Kd was > 100 µM. `CC(C)c1c(-c2cc(F)cc3[nH]ccc23)[nH]c(C(=O)O)c1-c1cccc2[nH]c(CO)cc12` [compound 189] was tested, and the Kd was < 20 µM. For `CC(C)c1c(-c2cc(F)cc3[nH]ccc23)[nH]c(C(=O)O)c1-c1cccc2[nH]c(C(N)=O)cc12` [compound 190], the Kd was < 20 µM. `CC(C)c1c(-c2cc(F)cc3[nH]ccc23)[nH]c(C(=O)O)c1-c1cccc2[nH]c3c(c12)CCCC3=O` [compound 211] was tested, and the Kd was < 20 µM. `CC(C)c1c(-c2cccc3[nH]ccc23)cn(CC(=O)O)c1-c1cccc2[nH]ccc12` [compound 76] was tested, and the Kd was < 20 µM. For `CC(C)CCOc1cccc(-c2ccc(C(=O)O)[nH]2)c1` [compound 132], the Kd was > 100 µM. `CCc1c(-c2cccc3[nH]ccc23)[nH]c(C(=O)O)c1-c1ccc2cc[nH]c2c1` [compound 25] was tested, and the Kd was < 20 µM. For `CC(C)c1cc(-c2c(C(=O)O)[nH]c(-c3cc(F)cc4[nH]ccc34)c2C(C)C)c2ccn(CC(=O)O)c2c1` [compound 55], the Kd was < 20 µM. `C#CCCCCC(=O)NCCc1c[nH]c2cc(F)cc(-c3[nH]c(C(=O)O)c(-c4c(Cl)ccc5[nH]ccc45)c3C(C)C)c12` [compound 67] was tested, and the Kd was < 20 µM. For `O=C(O)c1ccc(-c2ccccc2Oc2ccccc2)[nH]1` [compound 136], the Kd was > 100 µM. `CCc1c(-c2cccc3[nH]ccc23)[nH]c(C(=O)O)c1-c1cc([N+](=O)[O-])ccc1Cl` [compound 81] showed a Kd of 20 to 50 µM. `CCc1c(-c2cccc3c2ccn3C)[nH]c(C(=O)O)c1-c1ccccc1` [compound 101] showed a Kd of 50 to 100 µM. With `Cc1ccccc1-c1ccc(C(=O)O)[nH]1` [compound 154] the Kd was > 100 µM. With `CC(C)c1c(-c2cc(F)cc3[nH]ccc23)[nH]c(C(=O)O)c1-c1cccc2[nH]c(S(N)(=O)=O)cc12` [compound 227] the Kd was < 20 µM. `CC(C)c1c(-c2cc(F)cc3[nH]ccc23)[nH]c(C(=O)O)c1-c1c2cc[nH]c2cc2[nH]ccc12` [compound 269] was tested, and the Kd was < 20 µM. With `CC(C)c1c(-c2cc(F)cc3[nH]ccc23)[nH]c(C(=O)O)c1-c1cccc2[nH]c3ccccc3c12` [compound 210] the Kd was < 20 µM. For `CC(C)c1c(-c2cc(F)cc3[nH]ccc23)[nH]c(C(=O)O)c1-c1cccc2[nH]c(-c3nnn[nH]3)cc12` [compound 194], the Kd was < 20 µM. `COc1ccc2[nH]ccc2c1-c1c(C(=O)O)[nH]c(-c2cc(F)cc3[nH]ccc23)c1C(C)C` [compound 244] was tested, and the Kd was < 20 µM. For `CCc1c(-c2cccc3c2ccn3C)[nH]c(C(=O)O)c1-c1ccccc1Cl` [compound 88], the Kd was 20 to 50 µM. `COc1cc(OC)cc(-c2ccc(C(=O)O)[nH]2)c1` [compound 133] was tested, and the Kd was > 100 µM. With `CC(C)c1c(-c2cccc3[nH]ccc23)[nH]c(C(=O)O)c1-c1cccc2[nH]ccc12` [compound 33] the Kd was < 20 µM. `CCc1c(-c2cccc3[nH]ccc23)[nH]c(C(=O)O)c1CC1CCCCC1` [compound 78] showed a Kd of 20 to 50 µM. For `CC(C)c1c(-c2cc(F)cc3[nH]ccc23)[nH]c(C(=O)O)c1-c1cc(C(=O)N2CCCC2)cc2[nH]ccc12` [compound 198], the Kd was < 20 µM. For `CCc1cccc(-c2ccc(C(=O)O)[nH]2)c1` [compound 129], the Kd was > 100 µM. In the case of `CCc1c(-c2cccc3[nH]ccc23)[nH]c(C(=O)O)c1-c1ccccc1` [compound 89], the Kd is reported as 20 to 50 µM. For `Cc1cc(C(=O)O)[nH]c1-c1cccc2c1ccn2C` [compound 116], the Kd was > 100 µM. `Cc1c[nH]c2nccc(-c3c(C(=O)O)[nH]c(-c4cc(F)cc5[nH]ccc45)c3C(C)C)c12` [compound 208] was tested, and the Kd was < 20 µM. `O=C(O)c1ccc(-c2cccc(OCc3ccccc3)c2)[nH]1` [compound 135] was tested, and the Kd was > 100 µM. In the case of `O=C(O)c1ccc(-c2ccc(Cl)cc2)[nH]1` [compound 143], the Kd is reported as > 100 µM. With `CC(C)c1c(-c2cc(F)cc3[nH]ccc23)[nH]c(C(=O)O)c1-c1cccc2[nH]c(-c3ccno3)cc12` [compound 225] the Kd was < 20 µM. In the case of `CC(C)c1c(-c2cc(F)cc3[nH]ccc23)[nH]c(CS(C)(=O)=O)c1-c1cccc2[nH]ccc12` [compound 220], the Kd is reported as < 20 µM. In the case of `CC(C)c1c(-c2cc(F)cc3[nH]ccc23)[nH]c(C(N)=O)c1-c1cccc2[nH]c(C(=O)O)cc12` [compound 191], the Kd is reported as < 20 µM. In the case of `CC(C)c1c(-c2cccc3[nH]ccc23)c(C(=O)O)n2c1-c1cc(F)cc3ccn(c13)C(=O)C2` [compound 274], the Kd is reported as < 20 µM. `CCc1c(-c2c(C)ccc3[nH]ccc23)[nH]c(C(=O)O)c1-c1c(Cl)ccc2[nH]ccc12` [compound 6] was tested, and the Kd was < 20 µM. With `COc1cc(-c2c(C(=O)O)[nH]c(-c3cc(F)cc4[nH]ccc34)c2C(C)C)c2cc(CO)[nH]c2c1` [compound 192] the Kd was < 20 µM. With `CC(C)CCn1ccc2c(-c3ccc(C(=O)O)[nH]3)cccc21` [compound 124] the Kd was > 100 µM. For `CC(C)Cc1cc2c(-c3c(C(=O)O)[nH]c(-c4cc(F)cc5[nH]ccc45)c3C(C)C)cccc2[nH]1` [compound 202], the Kd was < 20 µM. For `CC(C)c1c(-c2cccc3[nH]ccc23)c(C(=O)O)n2c1-c1cc(F)cc3ccn(c13)CC2` [compound 270], the Kd was < 20 µM. In the case of `NCCn1ccc2c(-c3ccc(C(=O)O)[nH]3)cccc21` [compound 153], the Kd is reported as > 100 µM. In the case of `CCc1c(-c2cccc3[nH]ccc23)[nH]c(C(=O)O)c1Cc1ccccc1` [compound 79], the Kd is reported as 20 to 50 µM. With `CCOc1ccc(-c2c(C(=O)O)[nH]c(-c3cccc4[nH]ccc34)c2CC)c(Cl)c1` [compound 23] the Kd was < 20 µM. In the case of `CC(C)c1c(-c2cc(F)cc3[nH]ccc23)[nH]c(C(=O)O)c1-c1cccc2c1ccn2CCO` [compound 44], the Kd is reported as < 20 µM. For `CC(C)c1c(-c2cc(F)cc3[nH]ccc23)[nH]c(C(=O)O)c1-c1cc(OCC(=O)O)ccc1Cl` [compound 60], the Kd was < 20 µM. With `CCc1c(-c2cccc3[nH]ccc23)[nH]c(C(=O)O)c1C1CCCCC1` [compound 102] the Kd was > 100 µM. In the case of `O=C(O)c1ccc(-c2ccccc2)[nH]1` [compound 144], the Kd is reported as > 100 µM.
